Results taken from patent US11633355B2, “Multi-functional particles and methods of using the same” (Clemson University Research Foundation, priority 2014, dated 2023).

Tests used:
[1] = test system: rat primary cerebellar neurons (CBN); test: Neurite length of cerebellar neurons in in vitro hypoxia condition; format: cell-based; conditions: hypoxia 24 hours, then treatment for additional 24 hrs
Experimental: To generate hypoxia condition as a SCI model in vitro, rat primary cerebellar neurons (CBN) were isolated from P3 pubs and plated on the PLL/Laminin coated well plate. After 3 days culture, the cells were incubated in hypoxia gas chamber (95% N2 and 5% 02) for 24 hours and then the cells were treated with Rm-PgP and PgP without rolipram. Cells treated with free rolipram dissolved in DMSO were used as a positive control and cells maintained under normal atmospheric conditions were used as a negative control. The cells were incubated an additional 24 hrs in hypoxia condition and then fixed for neurite length evaluation. The neurite lengths were measured using ImageJ software program after β-3 tubulin staining.

[2] = Sirolimus and heparin loading in PgP micelles; format: physicochemical; conditions: 0.45 μm filter
Experimental: 50 μl Hep-F (20 mg/ml) was added into PgP solution, followed by two more hours stirring. Methanol was allowed to evaporate overnight, and the solution was centrifuged at 15,000×RCF for 15 minutes. Supernatant containing unbound Hep-F was removed and the precipitated nanoparticle was collected, resuspended and then filtered using 0.45 μm sterile syringe filter to remove unloaded SR. The amount of Hep-F binding to PgP was measured using Hep-F standard curve. Fluorescence was measured using a microplate reader (Excitation: 494 nm Emission: 521 nm, Biotek, VT, USA). Loading efficiency for Hep was calculated as % loading efficiency=(amount of Hep bound to PgP/amount of Hep added to PgP)×100.
Sr-PgP-Hep was prepared sequential loading of SR and Hep in PgP. Briefly, SR solution (LC labs, USA) was loaded in the PgP using solvent evaporation method and Hep was added into SR-PgP solution. […] The amount of SR loaded in PgP micelles solution was measured by High Pressure Liquid Chromatography (HPLC) (Waters Corporation, USA) using SR standard curve prepared in acetonitrile (ACN). […] The loading efficiency was calculated as: % loading efficiency=amount of SR loaded/amount of SR added ×100. The amount of Hep bound to PgP was determined based on Hep-F loading as described above.

| SMILES | neurite length compared with normoxia [1] | SR added in water without PgP, detection by HPLC after filtration [2] |
| --- | --- | --- |
| COc1ccc(C2CNC(=O)C2)cc1OC1CCCC1 (centres unmarked) [free Rm, rolipram] | not significantly different | – |
| CO[C@H]1C[C@@H]2CC[C@@H](C)[C@@](O)(O2)C(=O)C(=O)N2CCCC[C@H]2C(=O)O[C@H]([C@H](C)C[C@@H]2CC[C@@H](O)[C@H](OC)C2)CC(=O)[C@H](C)/C=C(\C)[C@@H](O)[C@@H](OC)C(=O)[C@H](C)C[C@H](C)/C=C/C=C/C=C/1C [sirolimus] | – | not detected |
